Test results from patent US20240122212A1 (SUNTORY HOLDINGS LIMITED, priority 2020, published 2024).

Legend:
[1] = Degree of sweetness relative to sucrose; conditions: for degree of sweetness, median value: median of the range, sucrose = 1; for degree of sweetness at sweetness intensity of 0.3, times as much as that of sucrose: sweetness intensity 0.3; for degree of sweetness at sweetness intensity of 4.3, times as much as that of sucrose: sweetness intensity 4.3
Source text: The “sweetness intensity” means an intensity of sweetness of a substance. […] A numerical value obtained by multiplying the degree of sweetness by a concentration Brix value of glucose is the sweetness intensity of glucose in terms of sucrose. Thus, when a concentration of glucose in terms of sucrose is Brix 1.5, the sweetness intensity of glucose is 0.65×1.5=0.975. The sweetness intensity of a sweetener in terms of sucrose can be calculated from a degree of sweetness shown in the following table or a value of a known degree of sweetness.
For example, when the sweetness intensity of sucrose per unit concentration Brix 1 is defined as a degree of sweetness of 1, a degree of sweetness of rebaudioside D is about 200 to 250 (median value 225), a degree of sweetness of rebaudioside M is about 200 to 260 (median value 230), a degree of sweetness of rebaudioside B is about 325, a degree of sweetness of rebaudioside A is about 200 to 300 (median value 250), a degree of sweetness of rebaudioside N is about 200 to 250 (median value 225), a degree of sweetness of rebaudioside O is about 200 to 250 (median value 225), a degree of sweetness of rebaudioside E is about 70 to 80 (median value 75), a degree of sweetness of a Luo han guo extract (containing 40% of Mog V) is about 110 to 150 (median value 130), a degree of sweetness of mogroside V is about 240 to 300 (median value 270), and a degree of sweetness of thaumatin is about 2,000, and a degree of sweetness of brazzein is about 500 to 2,000 (median value 1,250). The numerical value obtained by multiplying these degrees of sweetness by a concentration (w/v % (considered to be the same as w/w % in the case of a beverage)) of the high-intensity sweetener in a fruit juice beverage is a sweetness intensity of the high-intensity sweetener. The relative ratio in degrees of sweetness of various sweeteners to the degree of sweetness of 1 of sucrose can be determined from a known sugar sweetness conversion table, and the like. In the present description, when a degree of sweetness is shown in a numerical value range, the median value may be used. However, a sweetener having different values in a degree of sweetness by literatures, a relative ratio in a degree of sweetness to the degree of sweetness of 1 of sucrose can be defined by a sensory test. Examples of such a sensory test include a method in which samples were prepared by adding sucrose having a sweetness intensity of Brix 3.0 to 5.0 in 0.5 increments to pure water, and of which a sucrose-added sample having a sweetness intensity equal to an aqueous solution of a sweetener in a predetermined concentration is selected.
Additionally, for a sweetener with a variable degree of sweetness as a sweetness intensity increases, degrees of sweetness in different concentrations are actually measured and plotted whereby a degree of sweetness in a predetermined concentration may be calculated from the obtained approximate curve.

[2] = Basic taste quality sensory evaluation by trained panelists, spitting test, against 6% sucrose control (Example 1); assay type: in vivo, human; conditions: scale −3 to 3, 0 = no difference from 6% sucrose control; D-allulose 8.57 w/v %, D-arabinose 10 w/v % in pure water; 4 panelists
Experimental: In each evaluation item, the rating on a scale of −3 point to 3 point was performed, with the case where there is no difference from the control solution being 0. Quicker in sweetness onset, higher sweetness intensity, shorter lingering sweet aftertaste, lower bitterness intensity, and shorter lingering bitter aftertaste compared to the control were rated near 3 points. Slower in sweetness onset, lower sweetness intensity, longer lingering sweet aftertaste, higher bitterness intensity, and longer lingering bitter aftertaste compared to the control were rated near −3 points. That is, the closer to 0 point, the closer to the control. The evaluation was carried out by those (4 persons) who received sensory trainings as panelists by spitting test. The amount of a sweet substance contained in each sample solution was adjusted to be equal to the control solution on the calculation. […] The energy (kcal/100 ml) was calculated from the amount of the sweetener added.

[3] = value used to design the sample solutions

| Compound | degree of sweetness, median value [1] | degree of sweetness at sweetness intensity of 0.3, times as much as that of sucrose [1, 3] | degree of sweetness at sweetness intensity of 4.3, times as much as that of sucrose [1, 3] | also measured |
| --- | --- | --- | --- | --- |
| C=C1C[C@@]23CC[C@H]4[C@@](C)(CCC[C@@]4(C)C(=O)O[C@@H]4O[C@H](CO)[C@@H](O)[C@H](O[C@@H]5O[C@H](CO)[C@@H](O)[C@H](O)[C@H]5O)[C@H]4O[C@@H]4O[C@H](CO)[C@@H](O)[C@H](O)[C@H]4O)[C@@H]2CC[C@]1(O[C@@H]1O[C@H](CO)[C@@H](O)[C@H](O[C@@H]2O[C@H](CO)[C@@H](O)[C@H](O)[C@H]2O)[C@H]1O[C@@H]1O[C@H](CO)[C@@H](O)[C@H](O)[C@H]1O)C3 [rebaudioside M] | 230 | 100 times | 190.5 times | – |
| C=C1C[C@@]23CC[C@H]4[C@@](C)(CCC[C@@]4(C)C(=O)O[C@@H]4O[C@H](CO)[C@@H](O)[C@H](O)[C@H]4O[C@@H]4O[C@H](CO)[C@@H](O)[C@H](O)[C@H]4O)[C@@H]2CC[C@]1(O[C@@H]1O[C@H](CO)[C@@H](O)[C@H](O)[C@H]1O[C@@H]1O[C@H](CO)[C@@H](O)[C@H](O)[C@H]1O)C3 [rebaudioside E] | 75 | – | – | – |
| C[C@H](CC[C@@H](O[C@@H]1O[C@H](CO[C@@H]2O[C@H](CO)[C@@H](O)[C@H](O)[C@H]2O)[C@@H](O)[C@H](O)[C@H]1O[C@@H]1O[C@H](CO)[C@@H](O)[C@H](O)[C@H]1O)C(C)(C)O)[C@H]1CC[C@@]2(C)[C@@H]3CC=C4[C@@H](CC[C@H](O[C@@H]5O[C@H](CO[C@@H]6O[C@H](CO)[C@@H](O)[C@H](O)[C@H]6O)[C@@H](O)[C@H](O)[C@H]5O)C4(C)C)[C@]3(C)[C@H](O)C[C@]12C [mogroside V] | 270 | – | – | – |
| O=C[C@H](O)[C@@H](O)[C@H](O)[C@H](O)CO [Glucose] | 0.65 | – | – | – |
| O=C(CO)[C@H](O)[C@H](O)[C@H](O)CO [D-Allulose] | – | – | – | Bitterness intensity [2]: −1 point; Lingering bitter aftertaste [2]: −0.625 point; Lingering sweet aftertaste [2]: 0.125 point; Quickness in sweetness onset [2]: 0.125 point; Sweetness intensity [2]: −0.125 point; degree of sweetness, times as much as that of sucrose [1, 3]: 0.7 times |
| C=C1C[C@@]23CC[C@H]4[C@@](C)(CCC[C@@]4(C)C(=O)O[C@@H]4O[C@H](CO)[C@@H](O)[C@H](O[C@@H]5O[C@H](CO)[C@@H](O)[C@H](O)[C@H]5O)[C@H]4O[C@@H]4O[C@@H](C)[C@H](O)[C@@H](O)[C@H]4O)[C@@H]2CC[C@]1(O[C@@H]1O[C@H](CO)[C@@H](O)[C@H](O[C@@H]2O[C@H](CO)[C@@H](O)[C@H](O)[C@H]2O)[C@H]1O[C@@H]1O[C@H](CO)[C@@H](O)[C@H](O)[C@H]1O)C3 [rebaudioside N] | 225 | – | – | – |
| C=C1C[C@@]23CC[C@H]4[C@@](C)(CCC[C@@]4(C)C(=O)O[C@@H]4O[C@H](CO)[C@@H](O)[C@H](O[C@@H]5O[C@H](CO)[C@@H](O)[C@H](O)[C@H]5O)[C@H]4O[C@@H]4O[C@@H](C)[C@H](O)[C@@H](O[C@@H]5O[C@H](CO)[C@@H](O)[C@H](O)[C@H]5O)[C@H]4O)[C@@H]2CC[C@]1(O[C@@H]1O[C@H](CO)[C@@H](O)[C@H](O[C@@H]2O[C@H](CO)[C@@H](O)[C@H](O)[C@H]2O)[C@H]1O[C@@H]1O[C@H](CO)[C@@H](O)[C@H](O)[C@H]1O)C3 [rebaudioside O] | 225 | – | – | – |
| C=C1C[C@@]23CC[C@H]4[C@@](C)(CCC[C@@]4(C)C(=O)O[C@@H]4O[C@H](CO)[C@@H](O)[C@H](O)[C@H]4O[C@@H]4O[C@H](CO)[C@@H](O)[C@H](O)[C@H]4O)[C@@H]2CC[C@]1(O[C@@H]1O[C@H](CO)[C@@H](O)[C@H](O[C@@H]2O[C@H](CO)[C@@H](O)[C@H](O)[C@H]2O)[C@H]1O[C@@H]1O[C@H](CO)[C@@H](O)[C@H](O)[C@H]1O)C3 [rebaudioside D] | 225 | 100 times | 190.5 times | – |
| C=C1C[C@@]23CC[C@H]4[C@@](C)(CCC[C@@]4(C)C(=O)O[C@@H]4O[C@H](CO)[C@@H](O)[C@H](O)[C@H]4O)[C@@H]2CC[C@]1(O[C@@H]1O[C@H](CO)[C@@H](O)[C@H](O[C@@H]2O[C@H](CO)[C@@H](O)[C@H](O)[C@H]2O)[C@H]1O[C@@H]1O[C@H](CO)[C@@H](O)[C@H](O)[C@H]1O)C3 [rebaudioside A] | 250 | 100 times | 190.5 times | – |
| brazzein: sweet protein of Pentadiplandra brazzeana (QDKCKKVYENYPVSKCQLANQCNYDCKLDKHARSGECFYDEKRNLQCICDYCEY; UniProt P56552 1-54, looked up) | 1,250 | – | – | – |
